Patent publication US20220227720A1, “DHODH INHIBITORS AND THEIR USE AS ANTIVIRAL AGENTS” (priority 2019, published 2022)
Values after ≈ are worked out from the molar mass of the structure shown. Like-named read-outs stand apart in the source and are kept apart here.

Key:
[1] = tested on: HAZV; experiment: microbe, parasite or virus in culture; format: cell-based; conditions: Hazara virus, Vero C1008, read-out: IC50 HAZV
[2] = Hepatic microsome stability; conditions: 1 μm, 37° C., 0.5 mg/mL microsomes of mouse liver; cofactor: NADPH
[3] = tested on: YFV; experiment: microbe, parasite or virus in culture; format: cell-based; conditions: Yellow fever virus, Vero C1008, read-out: IC50 YFV
[4] = tested on: VEEV; experiment: microbe, parasite or virus in culture; format: cell-based; conditions: Venezuelan equine encephalitis virus, SW13, read-out: IC50 VEEV
[5] = tested on: DENV; experiment: Virus yield reduction assay, DENV in Vero E6 cells; format: cell-based; conditions: Dengue virus, Vero C1008; Simian Vero E6 cells; FLAVI virus family
[6] = Solubility in PBS pH 7.4; conditions: PBS pH 7.4, 20 °C, pH 7.4, aqueous buffer
[7] = Cytotoxicity assay, SW13 cells; conditions: human
[8] = tested on: TBEV; experiment: microbe, parasite or virus in culture; format: cell-based; conditions: Tick-borne encephalitis virus, SW13, read-out: IC50 TBEV
[9] = tested on: TBEV; experiment: microbe, parasite or virus in culture; format: cell-based; conditions: Tick-borne encephalitis virus, Vero C1008, read-out: IC50 TBEV
[10] = tested on: RVFV; experiment: microbe, parasite or virus in culture; format: cell-based; conditions: Rift Valley fever virus, HEK293, read-out: IC50 RVFV
[11] = tested on: RVFV; experiment: microbe, parasite or virus in culture; format: cell-based; conditions: Rift Valley fever virus, Vero C1008, read-out: IC50 RVFV
[12] = tested on: RVFV; experiment: microbe, parasite or virus in culture; format: cell-based; conditions: Rift Valley fever virus, BHK-21, in Mesocricetus auratus, read-out: IC50 RVFV
[13] = Plasma stability; conditions: 1 μm, 37° C., mouse plasma diluted with 1 volume of PBS pH 7.4
[14] = tested on: RVFV; experiment: microbe, parasite or virus in culture; format: cell-based; conditions: Rift Valley fever virus, SW13, read-out: IC50 RVFV
[15] = tested on: VEEV; experiment: microbe, parasite or virus in culture; format: cell-based; conditions: Venezuelan equine encephalitis virus, Vero C1008, read-out: IC50 VEEV
[16] = Cytotoxicity assay (CellTiter-Blue), Vero E6 cells; conditions: monkey (simian), Vero E6 cells, CC50, Simian Vero E6 cells; value repeated under each virus
[17] = tested on: TBEV; experiment: microbe, parasite or virus in culture; format: cell-based; conditions: Tick-borne encephalitis virus, HEK293, read-out: IC50 TBEV
[18] = tested on: ZIKV; experiment: Virus yield reduction assay, ZIKV in Vero E6 cells; format: cell-based; conditions: Zika virus, Vero C1008; Simian Vero E6 cells; FLAVI virus family
[19] = tested on: TOSV; experiment: microbe, parasite or virus in culture; format: cell-based, Toscana virus; conditions: Toscana virus, Vero C1008, read-out: IC50 (TOSV)
[20] = tested on: VEEV; experiment: microbe, parasite or virus in culture; format: cell-based; conditions: Venezuelan equine encephalitis virus, HEK293, read-out: IC50 VEEV
[21] = Cytotoxicity assay, BHK-21 cells; conditions: hamster, BHK-21 cells, CC50, Hamster BHK-21 cells; value repeated under each virus
[22] = tested on: BHK-21; experiment: Cytotoxicity assay, BHK-21 cells; conditions: Hamster BHK-21 cells; value repeated under each virus
[23] = tested on: YFV; experiment: microbe, parasite or virus in culture; format: cell-based; conditions: Yellow fever virus, BHK-21, in Mesocricetus auratus, read-out: IC50 YFV

SMILES: CCCCCc1ccc(C#Cc2ccc(NC(=O)C(C)C)c(C(=O)O)c2)cc1 [Example 9, 2-Isobutyramido-5-((4-pentylphenyl)ethynyl)benzoic acid]
- IC50 [1]: 0.012 µM
- Hepatic microsome stability [% remaining at 1 h] [2]: 45 ± 8 % remaining at 1 h
- IC50 [3]: 0.016 µM
- IC50 [4]: 0.014 µM
- IC50 [5]: 0.023 µM
- solubility [6]: 13 ± 6 µM (≈ 4.91 µg/mL)
- CC50 [7]: 17 µM
- IC50 [8]: 0.014 µM
- IC50 [9]: 0.0117 µM
- IC50 [10]: < 0.0016 µM
- IC50 [11]: 0.01 µM
- IC50 [12]: 0.043 µM
- Plasma stability [% remaining at 2 h] [13]: 98 ± 3 % remaining at 2 h
- IC50 [14]: 0.011 µM
- IC50 [15]: 0.0107 µM
- CC50 at 4 days [16]: 4 µM
- IC50 [17]: 0.0044 µM
- IC50 [18]: 0.023 µM
- IC50 [19]: 0.01 µM
- IC50 [20]: 0.0015 µM
- CC50 [21]: 50 µM
- CC50 [22]: 55 µM
- IC50 [23]: 0.055 µM
